pIC50: −log10 of the molar value.
Legend:
Type in all cases: functional, cell-based
HL-60 = test: Cytotoxicity against human HL60 cells assessed as reduction in cell viability by trypan blue method; settings: for IC50: hl-60; for pIC50: Homo sapiens, HL-60, read-out: IC50
PC-3 = test: Cytotoxicity against human PC3 cells assessed as reduction in cell viability by MTT assay; settings: for pIC50: Homo sapiens, PC-3, read-out: IC50; for IC50: pc-3
SGC-7901 = test: Cytotoxicity against human SGC7901 cells assessed as reduction in cell viability by MTT assay
[1] = Cytotoxicity against Med-merk carcinoma cells (unknown origin)
[2] = Cytotoxicity against mouse Sp2/0-Ag14 cells

| Structure (SMILES) | IC50 (HL-60) | pIC50 (PC-3) | IC50 (SGC-7901) | pIC50 (HL-60) | IC50 (PC-3) | pIC50 [1] | pIC50 [2] |
| --- | --- | --- | --- | --- | --- | --- | --- |
| O[C@@H]1CCN2Cc3ccccc3N=C12 | Not Active | 4.81 | Not Active |  |  |  |  |
| O=c1c2ccccc2nc2n1CC[C@@H]2O |  |  | Not Active | 4.17 | Not Active |  |  |
| COC(=O)CCn1cnc2ccccc2c1=O | Not Active |  | Not Active |  | Not Active |  |  |
| O=c1c2cc(O)ccc2nc2n1CC[C@H]2O | Not Active |  | Not Active |  | Not Active |  |  |
| O=c1c2cc(O)ccc2nc2n1CC[C@@H]2O | Not Active |  | Not Active |  | Not Active |  |  |
| O=c1c2ccccc2nc2n1CC[C@@H]2O[C@@H]1O[C@H](CO[C@@H]2O[C@H](CO)[C@@H](O)[C@H](O)[C@H]2O)[C@@H](O)[C@H](O)[C@H]1O | Not Active |  | Not Active |  | Not Active |  |  |
| O=c1c2ccccc2nc2n1CC[C@@H]2O[C@@H]1O[C@H](CO)[C@@H](O)[C@H](O)[C@H]1O | Not Active |  | Not Active |  | Not Active |  |  |
| Nc1ccccc1CN1CC[C@@H](O[C@@H]2O[C@H](CO[C@@H]3O[C@H](CO)[C@@H](O)[C@H](O)[C@H]3O)[C@@H](O)[C@H](O)[C@H]2O)C1=O | Not Active |  | Not Active |  | Not Active |  |  |
| O=c1[nH]c(CCCO)nc2ccccc12 | Not Active |  | Not Active |  | Not Active |  |  |
| O=c1c2ccccc2nc2n1CC[C@H]2O[C@@H]1O[C@H](CO[C@@H]2O[C@H](CO)[C@@H](O)[C@H](O)[C@H]2O)[C@@H](O)[C@H](O)[C@H]1O | Not Active |  | Not Active |  | Not Active |  |  |
| Nc1ccccc1CN1CC[C@H](O[C@@H]2O[C@H](CO[C@@H]3O[C@H](CO)[C@@H](O)[C@H](O)[C@H]3O)[C@@H](O)[C@H](O)[C@H]2O)C1=O |  |  | Not Active | 4.37 | Not Active |  |  |
| Nc1ccccc1CN1CC[C@@H](O)C1=O |  |  | Not Active | 4.37 | Not Active |  |  |
| Nc1ccccc1CN1CC[C@H](O)C1=O |  |  | Not Active | 4.37 | Not Active |  |  |
| O=c1c2ccccc2nc2n1CC[C@H]2O |  |  | Not Active | 4.17 | Not Active |  |  |
| O=c1c2ccccc2nc2n1CCC2O (racemic) |  |  |  |  |  | 4.60 | 4.72 |
| O=c1c2ccccc2nc2n1CCC2 [DEOXYVASICINONE] | Not Active |  | Not Active |  | Not Active |  |  |
| O=c1[nH]cnc2ccccc12 [QUINAZOLINONE] | Not Active |  | Not Active |  | Not Active |  |  |
| O[C@H]1CCN2Cc3ccccc3N=C12 [VASICINE] | Not Active | 4.81 | Not Active |  |  |  |  |
